Laboratory results: US7838556B2 (priority 2006, dated 2010)
Where a name gives a salt, the structure may show the parent alone. Read-outs that look alike come from different tables or passages of the source.

Assays:
Melatonin, Non-selective = format: binding
[1] = biological target: T1, GHB receptors (GHB sites) (Rattus norvegicus, UniProt P11275); details: cited from earlier work
GABAA receptors [2] = details: cited from earlier work
Sodium, Site 2 = format: binding
[3] = biological target: Adrenergic, Beta, Non-selective; format: binding
[4] = biological target: Muscarinic, Non-selective, Central; format: binding
[5] = biological target: Muscarinic, Non-selective, Peripheral; format: binding
GABAB receptors [6] = biological target: T2, GABAB receptors (Rattus norvegicus, UniProt Q9Z0U4); details: cited from earlier work
GABA receptors [7] = details: cited from earlier work
GABAA receptors [8] = format: binding, rat
GABAB receptors [9] = biological target: T2, GABAB receptors; format: binding
[10] = biological target: Potassium Channel, ATP-Sensitive (Rattus norvegicus, UniProt Q09429); format: binding
GABA, Non-Selective = format: binding
Sigma, Non-selective = format: binding
[11] = test system: GABA, Chloride, TBOB Site; format: binding
Dopamine, Non-selective = format: binding
[12] = test system: Adrenergic, Alpha 2, Non-selective; format: binding
[13] = test system: Calcium Channel, Type L (Benzothiazepine Site); format: binding
[14] = biological target: Potassium Channel, I[Kr] (hERG) (hr) (Homo sapiens, UniProt Q12809)
Adenosine, Non-selective = format: binding
[15] = test system: Adrenergic, Alpha 1, Non-selective; format: binding
[16] = test system: Calcium Channel, Type L (Dihydropyridine Site); format: binding
Serotonin, Non-selective = format: binding
Calcium Channel, Type N = Calcium Channel, Type N (Homo sapiens, UniProt Q00975); format: binding
Opiod, Non-selective = format: binding
GABA receptors [17] = format: binding, rat
[18] = biological target: T1, GHB receptors (GHB sites); format: binding
[19] = biological target: Calcium Channel, Type L (Dihydropyridine Site); details: cited from earlier work

T2 sequence (O88871 41-940): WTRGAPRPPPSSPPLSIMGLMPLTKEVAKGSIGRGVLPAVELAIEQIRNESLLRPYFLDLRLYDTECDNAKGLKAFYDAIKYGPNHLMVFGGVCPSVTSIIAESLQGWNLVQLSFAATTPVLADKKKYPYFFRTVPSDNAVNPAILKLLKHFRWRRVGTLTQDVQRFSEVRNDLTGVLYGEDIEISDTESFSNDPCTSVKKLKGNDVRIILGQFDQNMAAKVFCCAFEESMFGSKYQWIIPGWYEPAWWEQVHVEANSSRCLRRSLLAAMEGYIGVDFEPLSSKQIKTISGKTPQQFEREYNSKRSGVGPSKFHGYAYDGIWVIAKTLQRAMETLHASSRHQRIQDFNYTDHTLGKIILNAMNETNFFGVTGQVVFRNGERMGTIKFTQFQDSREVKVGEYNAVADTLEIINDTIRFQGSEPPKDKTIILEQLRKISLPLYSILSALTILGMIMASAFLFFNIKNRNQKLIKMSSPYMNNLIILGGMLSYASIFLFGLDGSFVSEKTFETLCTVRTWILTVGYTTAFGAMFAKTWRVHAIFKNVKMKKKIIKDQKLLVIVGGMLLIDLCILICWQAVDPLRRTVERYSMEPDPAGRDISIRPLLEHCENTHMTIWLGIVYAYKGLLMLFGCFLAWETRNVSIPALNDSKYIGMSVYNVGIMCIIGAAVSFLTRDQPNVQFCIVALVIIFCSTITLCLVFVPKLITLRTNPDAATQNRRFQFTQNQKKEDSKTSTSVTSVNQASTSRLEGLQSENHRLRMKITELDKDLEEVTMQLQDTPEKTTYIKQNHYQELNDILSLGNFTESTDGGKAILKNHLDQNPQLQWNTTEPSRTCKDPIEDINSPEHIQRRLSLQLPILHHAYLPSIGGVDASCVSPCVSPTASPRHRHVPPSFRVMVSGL
T2 sequence (Q9Z0U4 17-960): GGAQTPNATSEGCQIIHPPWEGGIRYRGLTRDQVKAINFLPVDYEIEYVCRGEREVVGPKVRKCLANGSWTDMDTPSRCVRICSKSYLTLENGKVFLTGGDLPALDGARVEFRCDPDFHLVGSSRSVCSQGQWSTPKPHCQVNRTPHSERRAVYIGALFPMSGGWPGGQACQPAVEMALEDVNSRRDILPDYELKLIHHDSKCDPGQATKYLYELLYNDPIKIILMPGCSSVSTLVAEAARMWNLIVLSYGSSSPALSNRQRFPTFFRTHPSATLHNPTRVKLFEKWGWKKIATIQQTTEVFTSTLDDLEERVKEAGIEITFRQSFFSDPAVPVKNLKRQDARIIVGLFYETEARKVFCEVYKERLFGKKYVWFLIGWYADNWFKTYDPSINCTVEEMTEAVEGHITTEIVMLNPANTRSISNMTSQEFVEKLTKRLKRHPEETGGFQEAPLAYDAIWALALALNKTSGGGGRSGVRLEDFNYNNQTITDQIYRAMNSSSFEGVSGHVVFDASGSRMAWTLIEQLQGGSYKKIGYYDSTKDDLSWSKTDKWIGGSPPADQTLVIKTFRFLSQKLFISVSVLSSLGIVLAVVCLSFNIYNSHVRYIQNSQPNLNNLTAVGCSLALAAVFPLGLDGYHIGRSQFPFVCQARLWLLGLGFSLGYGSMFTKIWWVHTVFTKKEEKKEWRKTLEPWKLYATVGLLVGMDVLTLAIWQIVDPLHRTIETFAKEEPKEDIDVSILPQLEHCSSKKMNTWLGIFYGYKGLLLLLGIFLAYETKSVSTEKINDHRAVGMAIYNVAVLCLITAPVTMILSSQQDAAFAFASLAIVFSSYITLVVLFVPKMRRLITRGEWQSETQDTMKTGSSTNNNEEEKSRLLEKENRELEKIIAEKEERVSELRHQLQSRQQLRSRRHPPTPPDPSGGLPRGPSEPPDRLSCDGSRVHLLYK
Sequence of Calcium Channel, Type N (Q00975 whole entry, looked up): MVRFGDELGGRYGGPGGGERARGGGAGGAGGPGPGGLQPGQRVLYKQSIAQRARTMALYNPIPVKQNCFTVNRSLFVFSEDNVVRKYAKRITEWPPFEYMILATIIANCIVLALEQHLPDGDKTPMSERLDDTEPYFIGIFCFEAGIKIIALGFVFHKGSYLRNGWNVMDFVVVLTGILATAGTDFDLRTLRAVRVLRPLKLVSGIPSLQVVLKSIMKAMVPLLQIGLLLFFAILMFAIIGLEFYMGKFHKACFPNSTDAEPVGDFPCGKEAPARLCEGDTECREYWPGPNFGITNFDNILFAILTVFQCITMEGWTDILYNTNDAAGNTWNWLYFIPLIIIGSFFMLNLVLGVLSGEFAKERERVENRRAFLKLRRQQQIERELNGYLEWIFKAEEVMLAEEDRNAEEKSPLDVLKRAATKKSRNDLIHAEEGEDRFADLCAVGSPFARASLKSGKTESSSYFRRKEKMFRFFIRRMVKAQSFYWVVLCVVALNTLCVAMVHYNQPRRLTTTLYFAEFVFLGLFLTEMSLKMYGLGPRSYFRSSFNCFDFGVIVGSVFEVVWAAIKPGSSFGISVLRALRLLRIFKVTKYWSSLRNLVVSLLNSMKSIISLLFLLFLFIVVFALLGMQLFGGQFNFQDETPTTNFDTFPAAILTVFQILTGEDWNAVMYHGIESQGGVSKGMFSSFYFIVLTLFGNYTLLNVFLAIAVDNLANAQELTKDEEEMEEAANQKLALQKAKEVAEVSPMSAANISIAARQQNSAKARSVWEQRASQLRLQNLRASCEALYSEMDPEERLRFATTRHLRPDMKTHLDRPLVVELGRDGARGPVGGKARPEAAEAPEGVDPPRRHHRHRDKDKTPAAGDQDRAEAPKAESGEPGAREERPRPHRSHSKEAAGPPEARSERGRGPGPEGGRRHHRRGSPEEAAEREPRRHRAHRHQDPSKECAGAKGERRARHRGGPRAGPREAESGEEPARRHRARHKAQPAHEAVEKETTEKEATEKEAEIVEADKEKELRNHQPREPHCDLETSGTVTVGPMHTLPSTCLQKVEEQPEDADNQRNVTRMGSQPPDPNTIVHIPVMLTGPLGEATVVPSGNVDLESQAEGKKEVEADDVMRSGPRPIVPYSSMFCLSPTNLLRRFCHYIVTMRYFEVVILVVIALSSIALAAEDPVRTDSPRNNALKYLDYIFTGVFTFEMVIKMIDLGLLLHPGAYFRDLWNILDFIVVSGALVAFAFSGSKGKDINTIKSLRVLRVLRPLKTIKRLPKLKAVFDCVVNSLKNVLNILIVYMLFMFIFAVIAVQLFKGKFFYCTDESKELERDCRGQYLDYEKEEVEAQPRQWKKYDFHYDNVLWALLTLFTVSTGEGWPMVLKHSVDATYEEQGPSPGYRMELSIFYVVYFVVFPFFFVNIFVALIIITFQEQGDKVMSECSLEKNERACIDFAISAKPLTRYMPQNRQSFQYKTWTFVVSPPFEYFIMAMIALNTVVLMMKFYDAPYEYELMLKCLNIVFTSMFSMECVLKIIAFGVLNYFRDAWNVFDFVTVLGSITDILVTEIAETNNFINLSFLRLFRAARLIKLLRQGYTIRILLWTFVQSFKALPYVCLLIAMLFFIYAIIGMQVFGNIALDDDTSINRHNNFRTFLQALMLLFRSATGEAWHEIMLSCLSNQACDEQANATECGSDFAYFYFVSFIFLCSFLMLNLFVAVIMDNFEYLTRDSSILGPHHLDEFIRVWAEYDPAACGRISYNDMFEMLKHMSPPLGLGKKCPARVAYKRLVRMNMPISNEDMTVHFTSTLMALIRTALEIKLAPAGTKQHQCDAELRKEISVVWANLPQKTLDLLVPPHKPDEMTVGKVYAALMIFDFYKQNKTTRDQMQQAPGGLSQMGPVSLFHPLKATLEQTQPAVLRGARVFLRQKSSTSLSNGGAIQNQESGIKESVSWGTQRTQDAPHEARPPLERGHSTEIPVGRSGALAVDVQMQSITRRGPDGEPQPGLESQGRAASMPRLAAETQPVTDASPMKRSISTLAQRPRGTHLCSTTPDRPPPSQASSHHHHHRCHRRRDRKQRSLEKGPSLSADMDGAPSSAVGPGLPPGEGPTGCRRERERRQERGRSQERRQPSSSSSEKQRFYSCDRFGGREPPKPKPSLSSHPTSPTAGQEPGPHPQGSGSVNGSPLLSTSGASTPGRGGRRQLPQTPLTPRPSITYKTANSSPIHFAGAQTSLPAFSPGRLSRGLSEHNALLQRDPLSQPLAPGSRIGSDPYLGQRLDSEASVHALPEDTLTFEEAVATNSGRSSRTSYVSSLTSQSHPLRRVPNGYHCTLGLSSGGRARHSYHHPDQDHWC
T1 sequence (P11275 whole entry): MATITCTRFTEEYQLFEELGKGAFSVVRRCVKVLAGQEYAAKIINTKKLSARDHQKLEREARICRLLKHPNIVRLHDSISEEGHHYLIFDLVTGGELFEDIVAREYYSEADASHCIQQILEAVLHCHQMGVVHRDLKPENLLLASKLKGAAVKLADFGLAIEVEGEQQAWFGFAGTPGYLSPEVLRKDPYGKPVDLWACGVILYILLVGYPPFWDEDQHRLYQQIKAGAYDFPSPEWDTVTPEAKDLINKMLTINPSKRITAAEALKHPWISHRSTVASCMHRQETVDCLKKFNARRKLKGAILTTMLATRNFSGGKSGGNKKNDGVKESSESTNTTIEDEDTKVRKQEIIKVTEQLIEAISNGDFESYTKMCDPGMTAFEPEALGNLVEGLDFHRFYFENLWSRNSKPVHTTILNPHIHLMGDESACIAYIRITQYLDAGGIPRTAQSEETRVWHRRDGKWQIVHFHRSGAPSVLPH

For `O=C(O)Cc1cccc(O)c1` [3-hydroxyphenylacetic acid], the “affinity at GHB receptors compared with GHB” value [1] is given as “greater affinity than GHB” and the “Percent displacement of [3H]GABA at 1 Mm, GABAA” value (“Percent displacement … GABAA” below) (GABAA receptors [2]) is given as 44%.
Compound `CCN1C[C@]2(COC)[C@H](O)C[C@H](OC)[C@@]34[C@@H]5C[C@@]6(O)[C@H](OC(=O)c7ccccc7)[C@@H]5[C@@](OC(C)=O)([C@@H]([C@H](OC)[C@H]23)[C@@H]14)[C@@H](O)[C@@H]6OC` [Aconitine, reference compound] has a Ki (Sodium, Site 2; read-out: Ki (M) Ref. Cpd.) of 6.67e-07 M.
`C=CCc1ccccc1OCC(O)CNC(C)C` (stereo not drawn) [Alprenolol HCl, reference compound] showed a Ki ([3]; read-out: Ki (M) Ref. Cpd.) of 3.33e-09 M.
Compound `CN1[C@@H]2CC[C@H]1C[C@@H](OC(=O)C(CO)c1ccccc1)C2` (stereo partly drawn) [Atropine sulfate, reference compound] has a Ki ([4]; read-out: Ki (M) Ref. Cpd.) of 1.26e-10 M and a Ki ([5]; read-out: Ki (M) Ref. Cpd.) of 5.8e-10 M.
In the case of `O=C(O)CCCO` [Compound 1, Gamma-hydroxybutyric acid], the “Percent displacement … GABAA” value (GABAA receptors [2]) is given as 35.5 ± 3.7%, the “Percent displacement of [3H]GABA at 1 Mm, GABAB” value (from here on “Percent displacement … GABAB”) (GABAB receptors [6]) is given as 41.1 ± 3.1% and the “affinity for GABA receptors” value (GABA receptors [7]) is given as “weak affinity”.
In the case of `O=C(O)Cc1cccc(O)c1` [Compound 7, 3-hydroxyphenylacetic acid], the “Percent displacement … GABAA” value (GABAA receptors [2]) is listed as 44.2 ± 2.0%, the “Percent displacement … GABAB” value (GABAB receptors [6]) is listed as 14.0 ± 4.0% and the “affinity for GABA receptors” value (GABA receptors [7]) is listed as “weak affinity”.
For `O=C(O)CCCOc1ccccc1` [Compound 8, reference compound], the “Percent displacement … GABAA” value (GABAA receptors [8]) was 6.3 ± 1.7% and the “Percent displacement … GABAB” value (GABAB receptors [9]) was 6.5 ± 1.0%.
In the case of `O=C(O)Cc1cccc(OCCc2ccccc2)c1` [Compound 10, phenethyl ether of 3-hydroxyphenylacetic acid], the “Percent displacement … GABAA” value (GABAA receptors [8]) is reported as 15.1 ± 7.5%, the Activity [10] is reported as “No (key: No: Activity = greater than or equal to 50% Inhibition of binding)” and the Activity (GABA, Non-Selective) is reported as “No (key: No: Activity = greater than or equal to 50% Inhibition of binding)”. For the same compound, the “Percent Inhibition (Average; N = 2)” value (GABA, Non-Selective) was 10.28%, the Activity [4] was “No (key: No: Activity = greater than or equal to 50% Inhibition of binding)” and the “Percent Inhibition (Average; N = 2)” value [4] was 6.98%. The Activity (Sigma, Non-selective) was “No (key: No: Activity = greater than or equal to 50% Inhibition of binding)”, the “Percent Inhibition (Average; N = 2)” value (Sigma, Non-selective) was 4.30% and the Activity [3] was “No (key: No: Activity = greater than or equal to 50% Inhibition of binding)”. The “Percent Inhibition (Average; N = 2)” value [3] was 43.67%, the Activity (Melatonin, Non-selective) was “No (key: No: Activity = greater than or equal to 50% Inhibition of binding)” and the “Percent Inhibition (Average; N = 2)” value (Melatonin, Non-selective) was 12.69%. For the same compound, the Activity [11] was “No (key: No: Activity = greater than or equal to 50% Inhibition of binding)”, the “Percent Inhibition (Average; N = 2)” value [11] was −15.01% and the Activity (Sodium, Site 2) was “No (key: No: Activity = greater than or equal to 50% Inhibition of binding)”. The “Percent Inhibition (Average; N = 2)” value (Sodium, Site 2) was 10.18%, the “Percent displacement … GABAB” value (GABAB receptors [9]) was −1.2 ± 7.3% and the Activity (Dopamine, Non-selective) was “No (key: No: Activity = greater than or equal to 50% Inhibition of binding)”. For the same compound, the “Percent Inhibition (Average; N = 2)” value (Dopamine, Non-selective) was 14.51%, the Activity [12] was “No (key: No: Activity = greater than or equal to 50% Inhibition of binding)” and the “Percent Inhibition (Average; N = 2)” value [12] was 0.21%. For the same compound, the Activity [13] was “No (key: No: Activity = greater than or equal to 50% Inhibition of binding)”, the “Percent Inhibition (Average; N = 2)” value [13] was 9.41% and the Activity [14] was “No (key: No: Activity = greater than or equal to 50% Inhibition of binding)”. The “Percent Inhibition (Average; N = 2)” value ([14]; human) was −11.94%, the Activity (Adenosine, Non-selective) was “No (key: No: Activity = greater than or equal to 50% Inhibition of binding)” and the “Percent Inhibition (Average; N = 2)” value (Adenosine, Non-selective) was −3.45%. For the same compound, the Activity [5] was “No (key: No: Activity = greater than or equal to 50% Inhibition of binding)”, the “Percent Inhibition (Average; N = 2)” value [5] was −0.77% and the Activity [15] was “No (key: No: Activity = greater than or equal to 50% Inhibition of binding)”. The “Percent Inhibition (Average; N = 2)” value [15] was −10.77%, the Activity [16] was “No (key: No: Activity = greater than or equal to 50% Inhibition of binding)” and the “Percent Inhibition (Average; N = 2)” value [16] was 14.52%. For the same compound, the Activity (Serotonin, Non-selective) was “No (key: No: Activity = greater than or equal to 50% Inhibition of binding)”, the “Percent Inhibition (Average; N = 2)” value (Serotonin, Non-selective) was −1.83% and the Activity (Calcium Channel, Type N) was “No (key: No: Activity = greater than or equal to 50% Inhibition of binding)”. The “Percent Inhibition (Average; N = 2)” value (Calcium Channel, Type N) was −2.31%, the Activity (Opiod, Non-selective) was “No (key: No: Activity = greater than or equal to 50% Inhibition of binding)” and the “Percent Inhibition (Average; N = 2)” value (Opiod, Non-selective) was 0.09%. For the same compound, the “affinity at GABA receptors / displacement of [3H]GABA compared with 3-hydroxyphenylacetic acid” value (GABA receptors [17]) was “decreased affinity”.
With `O=C(O)Cc1cccc(OCc2ccccc2)c1` [Compound 11, benzyl ether of 3-hydroxyphenylacetic acid] the “Percent displacement … GABAA” value (GABAA receptors [8]) was 11.0 ± 6.2%, the “fold lower affinity for GHB receptors than 3-hydroxyphenylacetic acid” value [18] was 4 fold and the “Percent displacement … GABAB” value (GABAB receptors [9]) was −4.7 ± 4.7%. For the same compound, the “affinity at GABA receptors / displacement of [3H]GABA compared with 3-hydroxyphenylacetic acid” value (GABA receptors [17]) was “lower extent”.
For `O=C(O)Cc1cccc(Oc2ccccc2)c1` [Compound 12, phenyl ether of 3-hydroxyphenylacetic acid], the “Percent displacement … GABAA” value (GABAA receptors [8]) was 2.7 ± 0.5%, the “Percent displacement … GABAB” value (GABAB receptors [9]) was −5.5 ± 1.2% and the “affinity at GABA receptors / displacement of [3H]GABA compared with 3-hydroxyphenylacetic acid” value (GABA receptors [17]) was “decreased affinity”.
For `CCOC(=O)C1=C(C)NC(C)=C(C(=O)OC)C1c1cccc([N+](=O)[O-])c1` (stereo not drawn) [[3H]Nitrendipine], the Kd [19] is given as 0.2 nM.
